According to patent US8440420B2, “Assessment of cardiac health and thrombotic risk in a patient” (priority 2005, dated 2013):
Like-named read-outs stand apart in the source and are kept apart here. Where a SMILES comes first, the peptide text is derived from it. Bridges are numbered along the chain shown (N, C = ends). [ ]: non-standard residue; d: D form. hArg = N=C(N)NCCCC[C@H](N)C(=O)O; Mpa = O=C(O)CCS

Experiments:
[1] = test system: platelets (arachidonic acid-induced aggregation); assay: Aspirin resistance by arachidonic acid-induced aggregation, LTA (Example 1); assay type: in vivo; details: 1.0 mM arachidonic acid; 1/70 patients; aspirin 81-325 mg qd
Text: J Am Coll Cardiol 1998 89:783).

[2] = test system: platelets (arachidonic acid-induced aggregation); details: Gum et al. study; ADP and 1.6 mM arachidonic acid; cited from earlier work
p-selectin = details: stimulated; 18-24 hours post-stenting; 300 mg clopidogrel alone
Protocol: The surface expression of platelet receptors was determined by whole blood flow cytometry using three-color analysis method (Immunocytometry Systems, Cytometry Source Book, Becton Dickinson) with the following monoclonal antibodies: FITCconjugated PAC-1. (recognizes activated GP IIb/IIIa receptors), R-Phycoerythrin (R-PE)-conjugated CD41a (recognizes total GP IIb/IIIa receptors), and CY-Chrome™ conjugated CD62P (recognizes p-selectin). All three antibodies were purchased from BD Biosciences, San Diego, Calif. The blood-citrate mixture was stimulated with 5 μM ADP for 2 minutes. Saturating concentrations of respective antibodies were then added and the tubes were incubated at room temperature for 20 minutes in the dark. […] The labeled samples were analyzed by a Becton Dickinson FACScan flow cytometer set up to measure fluorescence light scatter. The instrument was calibrated with fluorescence beads for the three-color flow cytometer setup (CaliBRITE™3, BD Biosciences). […] The data were collected in list mode and then analyzed using CELL Quest Software (BD BioSciences). P-selectin was expressed as percent positive cells (i.e. the ratio of CD62P (CY-Chrome™) verses CD41a (R-PE) positive cells) as previously described. Activated GP IIb/IIIa was expressed as log mean fluorescence intensity.

[3] = test system: platelets (ADP-induced aggregation); assay: ADP-induced platelet aggregation by light transmittance aggregometry after coronary stenting (Example 2); assay type: in vivo, patients
Protocol: Patients were randomly assigned to one of four treatment regimens by a computer generated assignment that was chosen from a sealed envelope by the study personnel: […] […] Unfractionated heparin was administered according to the ESPRIT dosing regimen (60 U/kg) as a bolus to all patients in the catheterization laboratory immediately prior to stenting. […] The blood-citrate tubes were centrifuged at 120 g for 5 minutes to recover platelet rich plasma (PRP) and further centrifuged at 850 g for 10 minutes to recover platelet poor plasma (PPP). The platelet count was determined in the PRP sample and adjusted to 3.0×10^8/ml with homologous platelet poor plasma. The PRP and PPP were stored at room temperature to be used within two hours. Platelet aggregation was assessed as described previously. […] Aggregation was expressed as the maximum percent change in light transmittance from baseline, using PPP as a reference.

[4] = test system: activated GP IIb/IIIa receptors; assay: Whole blood flow cytometry, stimulated active GP IIb/IIIa expression (Example 2); assay type: in vivo, patients; details: 18-24 hours post-stenting, 5 μM ADP stimulated
Protocol: (recognizes activated GP IIb/IIIa receptors), R-Phycoerythrin (R-PE)-conjugated CD41a (recognizes total GP IIb/IIIa receptors), and CY-Chrome™ conjugated CD62P (recognizes p-selectin). […] The blood-citrate mixture was stimulated with 5 μM ADP for 2 minutes.
The definition of an infarct was CK-MB>3× upper limits normal (ULN) in at least 2 samples and a large infarct was defined as CK-MB>5×ULN in at least 2 samples.10,13 Bleeding was quantified according to the TIMI criteria.16 In brief, major bleeding was defined as clinically overt bleeding accompanied by a fall in hemoglobin of […] or a fall in hematocrit of 9 to <15%.

[5] = test system: myocardial necrosis markers (troponin I, CKMB, myoglobin); assay: Myocardial necrosis markers and infarction after elective stenting (Example 2); assay type: in vivo, patients; details: for criteria met for a myocardial infarction: CK-MB>3× ULN in at least 2 samples; for large infarcts: CK-MB>5×ULN in at least 2 samples
Protocol: Patients were randomly assigned to one of four treatment regimens by a computer generated assignment that was chosen from a sealed envelope by the study personnel: […] […] Unfractionated heparin was administered according to the ESPRIT dosing regimen (60 U/kg) as a bolus to all patients in the catheterization laboratory immediately prior to stenting. Cardiac markers were measured at the same times as the platelet assays. The peak levels of troponin I, creatinine kinase MB (CKMB), and myoglobin were determined using the Triage® Cardiac Panel with a Triage® Meter (Biosite Inc., San Diego, Calif.). This method is based on a fluorescence immunoassay for the quantitative determination of these cardiac markers.

[6] = Group A, 300 mg clopidogrel; hematoma
Protocol: Relative platelet inhibition was defined for purposes of this study as follows: (baseline aggregation minus posttreatment aggregation)/baseline aggregation×100%.14 Mean platelet reactivity was calculated as the average platelet aggregation recorded at 3, 8 and 18-24 hours poststenting. […] The definition of an infarct was CK-MB>3× upper limits normal (ULN) in at least 2 samples and a large infarct was defined as CK-MB>5×ULN in at least 2 samples.10,13 Bleeding was quantified according to the TIMI criteria.16 In brief, major bleeding was defined as clinically overt bleeding accompanied by a fall in hemoglobin of 3.0-5.0 g/dl or a fall in hematocrit of 9 to <15%. Major bleeding occurred when the hemoglobin decreased >5 g/dl or the hematocrit ≧15%.

[7] = test system: platelets (ADP-induced aggregation); details: cited from earlier work
[8] = test system: platelets (ADP-induced aggregation); details: resistance = >75th percentile of group without SAT, 75 mg maintenance dose
Text: Cases of stent thrombosis (n=30) were identified by searching the medical records of patients who underwent coronary stenting in the last 1.5 years at the Sinai Hospital of Baltimore and Union Memorial Hospital, Baltimore, Md. […] Stent thrombosis was defined by the sudden onset of coronary artery occlusion in a stented vessel resulting in hospitalization and judged by the treating interventionalist as due to thrombosis. Platelet reactivity in patients with stent thrombosis (SAT) was compared to a group of patients without SAT. In patients without SAT, platelet studies were performed 5-14 days post-procedure and these patients were enrolled consecutively (n=100). […]
Platelet aggregation was determined by conventional light transmittance aggregometry in response to 5 and 20 μM ADP (adenosine diphosphate); and 1.0 mM arachidonic acid using standard methods as previously described. […] The platelet count was determined in the PRPR sample and adjusted to 2-3×10^8/ml with homologous PPP. Platelets in PRP were stimulated with a final concentration of 5 and 20 μM ADP (Chronolog, Haverton, Pa.), and percent aggregation was assessed as previously described using a Chronolog Lumi aggregometer (Model 490A) with the Aggro-Link software package (Gurbel et al. J Am Coll Cardiol 1998 89:783). […]

CC(=O)Oc1ccccc1C(=O)O [aspirin]
patients meeting the criteria for aspirin resistance [1]: 1.5%
patients meeting the criteria for aspirin resistance [2]: 5.5%

COC(=O)[C@H](c1ccccc1Cl)N1CCc2sccc2C1 [clopidogrel]
effect in p-selectin expression (p-selectin): least effect
time of peak inhibitory effect ([3]; 5 μM ADP, 300 mg clopidogrel loading dose): 18 to 24 h
time of peak inhibitory effect ([3]; 5 μM ADP, 600 mg clopidogrel loading dose): 8 h
platelet inhibition, 600 mg vs 300 mg loading dose ([3]; 5 μM ADP, 600 mg loading dose, no eptifibatide, first 24 hours after stenting): greater platelet inhibition
mean platelet reactivity vs 600 mg clopidogrel alone ([3]; 5 μM ADP, average of 3, 8 and 18-24 hours post-stenting, 300 mg clopidogrel alone): higher mean platelet reactivity
time of peak inhibitory effect ([3]; 20 μM ADP, 300 mg clopidogrel loading dose): 8 h
time of peak inhibitory effect ([3]; 20 μM ADP, 600 mg clopidogrel loading dose): 8 h
inhibition of stimulated expression of active GP IIb/IIIa ([4]; 300 mg clopidogrel loading dose (Groups A, C)): 50±20%
inhibition of stimulated expression of active GP IIb/IIIa ([4]; 600 mg clopidogrel loading dose (Groups B, D)): 63±7%
ST-elevation myocardial infarction in-hospital following a subacute thrombosis ([5]; Group A, 300 mg clopidogrel): one
criteria met for a myocardial infarction ([5]; Group A, 300 mg clopidogrel): 3 patients
large infarcts ([5]; Group A, 300 mg clopidogrel): 2
criteria met for a myocardial infarction ([5]; Group B, 600 mg clopidogrel): 1 patients
large infarcts ([5]; Group B, 600 mg clopidogrel): 1
minor bleeding [6]: one
inhibition of baseline aggregation ([7]; 300 mg loading dose, 5 and 20 μM ADP, 24 hours after administration): < 40%
estimated incidence of clopidogrel resistance ([8]; 5 μM ADP-induced aggregation): 65%
estimated incidence of clopidogrel resistance ([8]; 20 μM ADP-induced aggregation): 60%

N=C(N)NCCCC[C@@H]1NC(=O)CCSSC[C@@H](C(N)=O)NC(=O)[C@@H]2CCCN2C(=O)[C@H](Cc2c[nH]c3ccccc23)NC(=O)[C@H](CC(=O)O)NC(=O)CNC1=O [eptifibatide] ([Mpa][hArg]GDWPC-NH2; disulfide 1-7)
mean platelet reactivity ([3]; 5 μM ADP, average of 3, 8 and 18-24 hours post-stenting, eptifibatide use): lowest mean platelet reactivity
large infarcts ([5]; either group that received eptifibatide (Groups C, D)): no large infarcts
CKMB release (>1-3×ULN), overall ([5]; groups treated with eptifibatide vs clopidogrel alone): lowest
inhibition (of aggregation) ([7]; other studies): > 80%
